Calls of active or inactive are those of the source. No cut-off for these calls is given here. Non-standard residues stand in square brackets, D forms with d. Residues, ends and D or L forms follow the SMILES beside them. ξ: configuration not given here. ξNle = CCCCC(N)C(=O)O
Tests used:
[1] = molecular target: T1, Glucagon-like peptide 1 receptor (Homo sapiens, UniProt P43220); assay: Agonist activity at human GLP1R expressed in HEK293 cells at 30 nM after 5 hrs by luciferase reporter gene assay; type: cell-based
[2] = molecular target: Glucagon receptor (Homo sapiens) (UniProt P47871); assay: Agonist activity at human GCGR expressed in HEK293 cells after 5 hrs by luciferase reporter gene assay; type: cell-based
[3] = system: HEK293; assay: Selectivity ratio of EC50 for human GLP1R expressed in HEK293 cells to EC50 for human GLP2R expressed in HEK293; type: cell-based
[4] = Systemic clearance in Sprague-Dawley rat at 0.2 mg/kg, iv through cassette dosing measured up to 300 mins by LC/MS/MS analysis; type: ADME, organism-based; details: in vivo
[5] = molecular target: T2, Glucagon-like peptide 2 receptor (Homo sapiens, UniProt O95838); assay: Agonist activity at human GLP2R expressed in HEK293 cells after 5 hrs by luciferase reporter gene assay; type: cell-based
T2 sequence (O95838 whole entry): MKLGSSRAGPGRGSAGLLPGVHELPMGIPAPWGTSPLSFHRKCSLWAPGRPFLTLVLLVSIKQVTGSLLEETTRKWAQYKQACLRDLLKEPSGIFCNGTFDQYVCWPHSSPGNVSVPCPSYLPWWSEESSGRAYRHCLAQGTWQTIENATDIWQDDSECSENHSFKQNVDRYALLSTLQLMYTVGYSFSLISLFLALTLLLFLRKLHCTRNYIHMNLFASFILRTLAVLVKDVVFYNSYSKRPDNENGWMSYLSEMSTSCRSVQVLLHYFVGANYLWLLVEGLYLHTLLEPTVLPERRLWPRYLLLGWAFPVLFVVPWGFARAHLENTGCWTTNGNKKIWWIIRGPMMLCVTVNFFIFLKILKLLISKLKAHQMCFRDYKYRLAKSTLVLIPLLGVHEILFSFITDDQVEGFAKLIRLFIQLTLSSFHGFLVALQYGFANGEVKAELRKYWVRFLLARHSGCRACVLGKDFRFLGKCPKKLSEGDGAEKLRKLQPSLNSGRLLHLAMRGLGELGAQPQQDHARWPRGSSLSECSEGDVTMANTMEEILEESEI

[6] = molecular target: T1, Glucagon-like peptide 1 receptor; assay: Agonist activity at human GLP1R expressed in HEK293 cells after 5 hrs by luciferase reporter gene assay; type: cell-based

T1 sequence (P43220 whole entry): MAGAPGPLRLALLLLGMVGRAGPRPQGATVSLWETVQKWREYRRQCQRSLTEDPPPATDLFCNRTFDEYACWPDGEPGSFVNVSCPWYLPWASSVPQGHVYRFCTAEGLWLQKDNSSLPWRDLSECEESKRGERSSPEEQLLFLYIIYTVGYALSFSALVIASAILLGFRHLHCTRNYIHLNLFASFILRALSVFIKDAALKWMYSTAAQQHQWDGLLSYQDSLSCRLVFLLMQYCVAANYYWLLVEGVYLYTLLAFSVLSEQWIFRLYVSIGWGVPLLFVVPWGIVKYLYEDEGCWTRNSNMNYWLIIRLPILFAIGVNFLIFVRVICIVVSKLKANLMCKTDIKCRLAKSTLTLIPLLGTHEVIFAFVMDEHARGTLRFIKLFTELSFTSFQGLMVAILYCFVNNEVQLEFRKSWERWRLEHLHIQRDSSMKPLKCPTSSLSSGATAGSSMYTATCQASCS
Sequence of Glucagon receptor (Homo sapiens) (P47871 whole entry): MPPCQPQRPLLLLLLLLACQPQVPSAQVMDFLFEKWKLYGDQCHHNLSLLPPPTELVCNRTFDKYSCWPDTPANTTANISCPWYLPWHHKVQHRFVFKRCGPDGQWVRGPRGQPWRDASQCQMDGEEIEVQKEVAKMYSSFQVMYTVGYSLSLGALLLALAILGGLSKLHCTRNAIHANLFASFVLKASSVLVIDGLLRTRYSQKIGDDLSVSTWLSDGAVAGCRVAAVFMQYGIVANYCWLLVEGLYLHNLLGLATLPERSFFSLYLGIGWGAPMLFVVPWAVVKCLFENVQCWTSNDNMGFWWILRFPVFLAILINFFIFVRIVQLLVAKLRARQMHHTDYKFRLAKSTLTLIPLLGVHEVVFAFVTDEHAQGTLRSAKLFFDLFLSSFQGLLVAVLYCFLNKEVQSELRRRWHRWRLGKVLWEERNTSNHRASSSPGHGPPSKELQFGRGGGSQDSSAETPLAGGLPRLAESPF

| Compound | Efficacy [1] | Activity [2] | Ratio EC50 [3] | clearance [4] | EC50 [5] | EC50 [6] | EC50 ([5]; hek293) | EC50 ([6]; hek293) |
| --- | --- | --- | --- | --- | --- | --- | --- | --- |
| CCCCC(NC(=O)[C@H](CCC(=O)O)NC(=O)[C@H](CC(=O)O)NC(=O)[C@H](CO)NC(=O)[C@H](Cc1ccccc1)NC(=O)[C@H](CO)NC(=O)CNC(=O)[C@H](CC(=O)O)NC(=O)CNC(=O)[C@@H](N)Cc1cnc[nH]1)C(=O)N[C@H](Cc1cccs1)C(=O)N[C@H](C(=O)N[C@H](C(=O)N[C@@H](CC(C)C)C(=O)N[C@@H](CC(=O)O)C(=O)N[C@@H](CC(N)=O)C(=O)N[C@@H](CC(C)C)C(=O)N[C@@H](C)C(=O)N[C@@H](C)C(=O)N[C@@H](CCCNC(=N)N)C(=O)N[C@@H](CC(=O)O)C(=O)N[C@@H](Cc1ccccc1)C(=O)N[C@H](C(=O)N[C@@H](CC(N)=O)C(=O)N[C@@H](Cc1c[nH]c2ccccc12)C(=O)N[C@@H](CC(C)C)C(=O)N[C@H](C(=O)N[C@@H](CCC(N)=O)C(=O)N[C@H](C(=O)N[C@@H](CCCCN)C(N)=O)[C@@H](C)O)[C@@H](C)CC)[C@@H](C)CC)[C@@H](C)CC)[C@@H](C)O (some centres not stated) | 49% | inactive | 800 | 1.1 mL/min/kg | 0.1 nM | 80 nM | – | – |
| CCCCC(NC(=O)[C@H](CCC(=O)O)NC(=O)[C@H](CC(=O)O)NC(=O)[C@H](CO)NC(=O)[C@H](Cc1ccccc1)NC(=O)[C@H](CO)NC(=O)CNC(=O)[C@H](CC(=O)O)NC(=O)CNC(=O)[C@@H](N)Cc1cnc[nH]1)C(=O)N[C@H](C(=O)N[C@H](C(=O)N[C@H](C(=O)N[C@@H](CC(C)C)C(=O)N[C@@H](CC(=O)O)C(=O)N[C@@H](CC(N)=O)C(=O)N[C@@H](CC(C)C)C(=O)N[C@@H](C)C(=O)N[C@@H](C)C(=O)N[C@@H](CCCNC(=N)N)C(=O)N[C@@H](CC(=O)O)C(=O)N[C@@H](Cc1ccccc1)C(=O)N[C@H](C(=O)N[C@@H](CC(N)=O)C(=O)N[C@@H](Cc1c[nH]c2ccccc12)C(=O)N[C@@H](CC(C)C)C(=O)N[C@H](C(=O)N[C@@H](CCC(N)=O)C(=O)N[C@H](C(=O)N[C@@H](CCCCN)C(N)=O)[C@@H](C)O)[C@@H](C)CC)[C@@H](C)CC)[C@@H](C)CC)[C@@H](C)O)[C@@H](C)CC (some centres not stated) (H-HGDGSFSDE[ξNle]ITILDNLAARDFINWLIQTK-NH2) | 92% | inactive | 840 | 5.6 mL/min/kg | 0.13 nM | 110 nM | – | – |
| CCCCC(NC(=O)[C@H](CCC(=O)O)NC(=O)[C@H](CC(=O)O)NC(=O)[C@H](CO)NC(=O)[C@H](Cc1ccccc1)NC(=O)[C@H](CO)NC(=O)CNC(=O)[C@H](CC(=O)O)NC(=O)CNC(=O)[C@@H](N)Cc1cnc[nH]1)C(=O)N[C@H](Cc1ccccc1Cl)C(=O)N[C@H](C(=O)N[C@H](C(=O)N[C@@H](CC(C)C)C(=O)N[C@@H](CC(=O)O)C(=O)N[C@@H](CC(N)=O)C(=O)N[C@@H](CC(C)C)C(=O)N[C@@H](C)C(=O)N[C@@H](C)C(=O)N[C@@H](CCCNC(=N)N)C(=O)N[C@@H](CC(=O)O)C(=O)N[C@@H](Cc1ccccc1)C(=O)N[C@H](C(=O)N[C@@H](CC(N)=O)C(=O)N[C@@H](Cc1c[nH]c2ccccc12)C(=O)N[C@@H](CC(C)C)C(=O)N[C@H](C(=O)N[C@@H](CCC(N)=O)C(=O)N[C@H](C(=O)N[C@@H](CCCCN)C(N)=O)[C@@H](C)O)[C@@H](C)CC)[C@@H](C)CC)[C@@H](C)CC)[C@@H](C)O (some centres not stated) | 36% | inactive | 900 | 0.73 mL/min/kg | 0.11 nM | 100 nM | – | – |
| CCCCC(NC(=O)[C@H](CCC(=O)O)NC(=O)[C@H](CC(=O)O)NC(=O)[C@H](CO)NC(=O)[C@H](Cc1ccccc1)NC(=O)[C@H](CO)NC(=O)CNC(=O)[C@H](CC(=O)O)NC(=O)CNC(=O)[C@@H](N)Cc1cnc[nH]1)C(=O)N[C@@H](Cc1ccccc1)C(=O)N[C@H](C(=O)N[C@H](C(=O)N[C@@H](CC(C)C)C(=O)N[C@@H](CC(=O)O)C(=O)N[C@@H](CC(N)=O)C(=O)N[C@@H](CC(C)C)C(=O)N[C@@H](C)C(=O)N[C@@H](C)C(=O)N[C@@H](CCCNC(=N)N)C(=O)N[C@@H](CC(=O)O)C(=O)N[C@@H](Cc1ccccc1)C(=O)N[C@H](C(=O)N[C@@H](CC(N)=O)C(=O)N[C@@H](Cc1c[nH]c2ccccc12)C(=O)N[C@@H](CC(C)C)C(=O)N[C@H](C(=O)N[C@@H](CCC(N)=O)C(=O)N[C@H](C(=O)N[C@@H](CCCCN)C(N)=O)[C@@H](C)O)[C@@H](C)CC)[C@@H](C)CC)[C@@H](C)CC)[C@@H](C)O (some centres not stated) | 94% | inactive | 100 | 1.8 mL/min/kg | 0.15 nM | 16 nM | – | – |
| CCCCC(NC(=O)[C@@H](CCC(=O)O)NC(=O)[C@@H](CC(=O)O)NC(=O)[C@@H](CO)NC(=O)[C@@H](Cc1ccccc1)NC(=O)[C@@H](CO)NC(=O)CNC(=O)[C@@H](CC(=O)O)NC(=O)CNC(=O)[C@@H](N)Cc1cnc[nH]1)C(=O)NC(Cc1ccc(Cl)cc1)C(=O)N[C@H](C(=O)N[C@H](C(=O)N[C@@H](CC(C)C)C(=O)N[C@@H](CC(=O)O)C(=O)N[C@@H](CC(N)=O)C(=O)N[C@@H](CC(C)C)C(=O)N[C@@H](C)C(=O)N[C@@H](C)C(=O)N[C@@H](CCCNC(=N)N)C(=O)N[C@@H](CC(=O)O)C(=O)N[C@@H](Cc1ccccc1)C(=O)N[C@H](C(=O)N[C@@H](CC(N)=O)C(=O)N[C@H](Cc1c[nH]c2ccccc12)C(=O)N[C@H](CC(C)C)C(=O)N[C@@H](C(=O)N[C@H](CCC(N)=O)C(=O)N[C@@H](C(=O)N[C@@H](CCCCN)C(N)=O)[C@H](C)O)[C@@H](C)CC)[C@H](C)CC)[C@H](C)CC)[C@@H](C)O (some centres not stated) | 89% | inactive | 55 | 0.55 mL/min/kg | – | – | 0.16 nM | 8.8 nM |
| CCCCC(NC(=O)[C@H](CCC(=O)O)NC(=O)[C@H](CC(=O)O)NC(=O)[C@H](CO)NC(=O)[C@H](Cc1ccccc1)NC(=O)[C@H](CO)NC(=O)CNC(=O)[C@H](CC(=O)O)NC(=O)CNC(=O)[C@@H](N)Cc1cnc[nH]1)C(=O)N[C@H](Cc1ccc(O)cc1)C(=O)N[C@H](C(=O)N[C@H](C(=O)N[C@@H](CC(C)C)C(=O)N[C@@H](CC(=O)O)C(=O)N[C@@H](CC(N)=O)C(=O)N[C@@H](CC(C)C)C(=O)N[C@@H](C)C(=O)N[C@@H](C)C(=O)N[C@@H](CCCNC(=N)N)C(=O)N[C@@H](CC(=O)O)C(=O)N[C@@H](Cc1ccccc1)C(=O)N[C@H](C(=O)N[C@@H](CC(N)=O)C(=O)N[C@@H](Cc1c[nH]c2ccccc12)C(=O)N[C@@H](CC(C)C)C(=O)N[C@H](C(=O)N[C@@H](CCC(N)=O)C(=O)N[C@H](C(=O)N[C@@H](CCCCN)C(N)=O)[C@@H](C)O)[C@@H](C)CC)[C@@H](C)CC)[C@@H](C)CC)[C@@H](C)O (some centres not stated) | 68% | inactive | 170 | 4.9 mL/min/kg | 0.18 nM | 32 nM | – | – |
| CCCCC(NC(=O)[C@H](CCC(=O)O)NC(=O)[C@H](CC(=O)O)NC(=O)[C@H](CO)NC(=O)[C@H](Cc1ccccc1)NC(=O)[C@H](CO)NC(=O)CNC(=O)[C@H](CC(=O)O)NC(=O)CNC(=O)[C@@H](N)Cc1cnc[nH]1)C(=O)N[C@H](Cc1cccc(Cl)c1)C(=O)N[C@H](C(=O)N[C@H](C(=O)N[C@@H](CC(C)C)C(=O)N[C@@H](CC(=O)O)C(=O)N[C@@H](CC(N)=O)C(=O)N[C@@H](CC(C)C)C(=O)N[C@@H](C)C(=O)N[C@@H](C)C(=O)N[C@@H](CCCNC(=N)N)C(=O)N[C@@H](CC(=O)O)C(=O)N[C@@H](Cc1ccccc1)C(=O)N[C@H](C(=O)N[C@@H](CC(N)=O)C(=O)N[C@@H](Cc1c[nH]c2ccccc12)C(=O)N[C@@H](CC(C)C)C(=O)N[C@H](C(=O)N[C@@H](CCC(N)=O)C(=O)N[C@H](C(=O)N[C@@H](CCCCN)C(N)=O)[C@@H](C)O)[C@@H](C)CC)[C@@H](C)CC)[C@@H](C)CC)[C@@H](C)O (some centres not stated) | 73% | inactive | 400 | 0.32 mL/min/kg | 0.11 nM | 45 nM | – | – |
| CCCCC(NC(=O)[C@H](CCC(=O)O)NC(=O)[C@H](CC(=O)O)NC(=O)[C@H](CO)NC(=O)[C@H](Cc1ccccc1)NC(=O)[C@@H](CO)NC(=O)CNC(=O)[C@@H](CC(=O)O)NC(=O)CNC(=O)[C@@H](N)Cc1cnc[nH]1)C(=O)NC(CCC(C)C)C(=O)N[C@H](C(=O)N[C@H](C(=O)N[C@@H](CC(C)C)C(=O)N[C@@H](CC(=O)O)C(=O)N[C@@H](CC(N)=O)C(=O)N[C@@H](CC(C)C)C(=O)N[C@@H](C)C(=O)N[C@@H](C)C(=O)N[C@@H](CCCNC(=N)N)C(=O)N[C@@H](CC(=O)O)C(=O)N[C@H](Cc1ccccc1)C(=O)N[C@@H](C(=O)N[C@H](CC(N)=O)C(=O)N[C@@H](Cc1c[nH]c2ccccc12)C(=O)N[C@H](CC(C)C)C(=O)N[C@@H](C(=O)N[C@H](CCC(N)=O)C(=O)N[C@@H](C(=O)N[C@@H](CCCCN)C(N)=O)[C@H](C)O)[C@H](C)CC)[C@H](C)CC)[C@H](C)CC)[C@@H](C)O (some centres not stated) | 87% | inactive | 34 | – | 0.29 nM | 10 nM | – | – |
